In article PMC9186362, “Design and biological evaluation of substituted 5,7-dihydro-6H-indolo[2,3-c]quinolin-6-one as novel selective Haspin inhibitors” (Journal of Enzyme Inhibition and Medicinal Chemistry, 2022):

Experiments:
Assay in all cases: SelectScreen ZLYTE
Format in all cases: biochemical
AURKB (Aurora B) = target: T1, AURKB (Aurora B) (Homo sapiens, UniProt Q96GD4); conditions: ATP Km, read-out: Percentage of inhibition
T1 construct: purchased Life Technologies
Outline: (§1)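 Here 1 μM of inhibitor is profiled against a large kinase collection, and the extent of enzyme inhibition is stated as a percentage.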

STK22B (TSSK2) = target: T2, STK22B (TSSK2) (Homo sapiens, UniProt Q96PF2); conditions: ATP Km, read-out: Percentage of inhibition
T2 construct: purchased Life Technologies
Outline: as §1

SGKL (SGK3) = target: T3, SGKL (SGK3) (Homo sapiens, UniProt Q96BR1); conditions: ATP Km, read-out: Percentage of inhibition
T3 construct: purchased Life Technologies (SelectScreen)
Outline: as §1

PRKCD (PKC delta) = PRKCD (PKC delta) (Homo sapiens, UniProt Q05655); conditions: ATP Km, read-out: Percentage of inhibition
Outline: as §1

HIPK1 (Myak) = HIPK1 (Myak) (Homo sapiens, UniProt Q86Z02); conditions: ATP Km, read-out: Percentage of inhibition
Outline: as §1

PRKCA (PKC alpha) = PRKCA (PKC alpha) (Homo sapiens, UniProt P17252); conditions: ATP Km, read-out: Percentage of inhibition
Outline: as §1

FGFR4 = FGFR4 (Homo sapiens, UniProt P22455); conditions: ATP Km, read-out: Percentage of inhibition
Outline: as §1

SRC = target: T4, SRC (Homo sapiens, UniProt P12931); conditions: ATP Km, read-out: Percentage of inhibition
T4 construct: purchased Life Technologies
Outline: as §1

DYRK1B = target: T5, DYRK1B (Homo sapiens, UniProt Q9Y463); conditions: ATP Km, read-out: Percentage of inhibition
T5 construct: purchased Life Technologies
Outline: as §1

AMPK A2/B1/G1 = AMPK A2/B1/G1 (Homo sapiens, UniProt P54646); conditions: ATP Km, read-out: Percentage of inhibition
Outline: as §1

PTK2 (FAK) = target: T6, PTK2 (FAK) (Homo sapiens, UniProt Q05397); conditions: ATP Km, read-out: Percentage of inhibition
T6 construct: purchased Life Technologies (SelectScreen service)
Outline: as §1

STK4 (MST1) = target: T7, STK4 (MST1) (Homo sapiens, UniProt Q13043); conditions: ATP Km, read-out: Percentage of inhibition
T7 construct: purchased Life Technologies (SelectScreen Whole Panel)
Outline: as §1

CAMK1G (CAMKI gamma) = CAMK1G (CAMKI gamma) (Homo sapiens, UniProt Q96NX5); conditions: ATP Km, read-out: Percentage of inhibition
Outline: as §1

MATK (HYL) = target: T8, MATK (HYL) (Homo sapiens, UniProt P42679); conditions: ATP Km, read-out: Percentage of inhibition
T8 construct: purchased Life Technologies (SelectScreen Whole Panel service)
Outline: as §1

AMPK (A1/B2/G3) = AMPK (A1/B2/G3) (Homo sapiens, UniProt Q13131); conditions: ATP Km, read-out: Percentage of inhibition
Outline: as §1

CSNK1G2 (CK1 gamma 2) = target: T9, CSNK1G2 (CK1 gamma 2) (Homo sapiens, UniProt P78368); conditions: ATP Km, read-out: Percentage of inhibition
T9 construct: purchased Life Technologies
Outline: as §1

CDK17/cyclin Y = CDK17/cyclin Y (Homo sapiens, UniProt Q00537); conditions: ATP Km, read-out: Percentage of inhibition
Outline: as §1

NIM1K = target: T10, NIM1K (Homo sapiens, UniProt Q8IY84); conditions: ATP Km, read-out: Percentage of inhibition
T10 construct: purchased Life Technologies (SelectScreen)
Outline: as §1

PDGFRB (PDGFR beta) = target: T11, PDGFRB (PDGFR beta) (Homo sapiens, UniProt P09619); conditions: ATP Km, read-out: Percentage of inhibition
T11 construct: purchased Life Technologies (SelectScreen service)
Outline: as §1

ITK = target: T12, ITK (Homo sapiens, UniProt Q08881); conditions: ATP Km, read-out: Percentage of inhibition
T12 construct: purchased Life Technologies (SelectScreen Whole Panel)
Outline: as §1

MAPK13 (p38 delta) = MAPK13 (p38 delta) (Homo sapiens, UniProt O15264); conditions: ATP Km, read-out: Percentage of inhibition
Outline: as §1

PRKCE (PKC epsilon) = target: T13, PRKCE (PKC epsilon) (Homo sapiens, UniProt Q02156); conditions: ATP Km, read-out: Percentage of inhibition
T13 construct: purchased Life Technologies (SelectScreen Whole Panel service)
Outline: as §1

AURKC (Aurora C) = target: T14, AURKC (Aurora C) (Homo sapiens, UniProt Q9UQB9); conditions: ATP Km, read-out: Percentage of inhibition
T14 construct: purchased Life Technologies (SelectScreen Whole Panel service)
Outline: as §1

IGF1R = IGF1R (Homo sapiens, UniProt P08069); conditions: ATP Km, read-out: Percentage of inhibition
Outline: as §1

DCAMKL1 (DCLK1) = target: T15, DCAMKL1 (DCLK1) (Homo sapiens, UniProt O15075); conditions: ATP Km, read-out: Percentage of inhibition
T15 construct: purchased Life Technologies
Outline: as §1

PAK4 = PAK4 (Homo sapiens, UniProt O96013); conditions: ATP Km, read-out: Percentage of inhibition
Outline: as §1

STK25 (YSK1) = target: T16, STK25 (YSK1) (Homo sapiens, UniProt O00506); conditions: ATP Km, read-out: Percentage of inhibition
T16 construct: purchased Life Technologies (SelectScreen Whole Panel service)
Outline: as §1

MAPK10 (JNK3) = target: T17, MAPK10 (JNK3) (Homo sapiens, UniProt P53779); conditions: ATP 100 µM, read-out: Percentage of inhibition
T17 construct: purchased Life Technologies
Outline: as §1

PDGFRA T674I = PDGFRA T674I (Homo sapiens, UniProt P16234, T674I); conditions: ATP Km, read-out: Percentage of inhibition
Outline: as §1

MARK4 = target: T18, MARK4 (Homo sapiens, UniProt Q96L34); conditions: ATP Km, read-out: Percentage of inhibition
T18 construct: purchased Life Technologies
Outline: as §1

EPHA4 = target: T19, EPHA4 (Homo sapiens, UniProt P54764); conditions: ATP Km, read-out: Percentage of inhibition
T19 construct: purchased Life Technologies (SelectScreen)
Outline: as §1

ACVR1B (ALK4) = target: T20, ACVR1B (ALK4) (Homo sapiens, UniProt P36896); conditions: ATP Km, read-out: Percentage of inhibition
T20 construct: purchased Life Technologies (SelectScreen Whole Panel)
Outline: as §1

PIM2 = target: T21, PIM2 (Homo sapiens, UniProt Q9P1W9); conditions: ATP Km, read-out: Percentage of inhibition
T21 construct: purchased Life Technologies (SelectScreen Whole Panel service)
Outline: as §1

PASK = target: T22, PASK (Homo sapiens, UniProt Q96RG2); conditions: ATP Km, read-out: Percentage of inhibition
T22 construct: purchased Life Technologies (SelectScreen Whole Panel)
Outline: as §1

FES (FPS) = target: T23, FES (FPS) (Homo sapiens, UniProt P07332); conditions: ATP Km, read-out: Percentage of inhibition
T23 construct: purchased Life Technologies (SelectScreen service)
Outline: as §1

AMPK A1/B1/G1 = target: T24, AMPK A1/B1/G1 (Homo sapiens, UniProt Q13131); conditions: ATP Km, read-out: Percentage of inhibition
T24 construct: purchased Life Technologies (SelectScreen Whole Panel service)
Outline: as §1

EPHA1 = target: T25, EPHA1 (Homo sapiens, UniProt P21709); conditions: ATP Km, read-out: Percentage of inhibition
T25 construct: purchased Life Technologies
Outline: as §1

CDKL5 = target: T26, CDKL5 (Homo sapiens, UniProt O76039); conditions: ATP Km, read-out: Percentage of inhibition
T26 construct: purchased Life Technologies
Outline: as §1

EPHB2 = EPHB2 (Homo sapiens, UniProt P29323); conditions: ATP Km, read-out: Percentage of inhibition
Outline: as §1

FGFR4, sequence (P22455 22-802): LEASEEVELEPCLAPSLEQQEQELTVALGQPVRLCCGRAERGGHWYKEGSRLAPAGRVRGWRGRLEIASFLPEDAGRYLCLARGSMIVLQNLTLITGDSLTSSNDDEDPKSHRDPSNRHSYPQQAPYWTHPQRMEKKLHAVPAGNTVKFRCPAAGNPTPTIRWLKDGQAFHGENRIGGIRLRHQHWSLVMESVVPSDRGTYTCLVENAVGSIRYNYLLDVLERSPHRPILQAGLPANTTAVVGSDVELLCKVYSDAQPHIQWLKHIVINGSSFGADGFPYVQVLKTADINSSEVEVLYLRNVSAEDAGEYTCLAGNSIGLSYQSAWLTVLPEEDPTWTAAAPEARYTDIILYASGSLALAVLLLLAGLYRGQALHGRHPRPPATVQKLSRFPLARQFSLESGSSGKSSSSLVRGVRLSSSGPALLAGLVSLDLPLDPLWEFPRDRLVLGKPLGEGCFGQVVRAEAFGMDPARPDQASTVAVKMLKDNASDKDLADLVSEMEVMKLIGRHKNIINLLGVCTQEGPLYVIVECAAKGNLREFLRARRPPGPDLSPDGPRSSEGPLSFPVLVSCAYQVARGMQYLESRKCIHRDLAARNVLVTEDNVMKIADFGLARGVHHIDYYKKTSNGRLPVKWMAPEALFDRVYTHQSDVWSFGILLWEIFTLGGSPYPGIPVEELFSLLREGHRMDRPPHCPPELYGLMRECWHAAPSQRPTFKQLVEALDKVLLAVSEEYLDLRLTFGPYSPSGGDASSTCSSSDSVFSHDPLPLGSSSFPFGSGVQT
T17 sequence (P53779 whole entry): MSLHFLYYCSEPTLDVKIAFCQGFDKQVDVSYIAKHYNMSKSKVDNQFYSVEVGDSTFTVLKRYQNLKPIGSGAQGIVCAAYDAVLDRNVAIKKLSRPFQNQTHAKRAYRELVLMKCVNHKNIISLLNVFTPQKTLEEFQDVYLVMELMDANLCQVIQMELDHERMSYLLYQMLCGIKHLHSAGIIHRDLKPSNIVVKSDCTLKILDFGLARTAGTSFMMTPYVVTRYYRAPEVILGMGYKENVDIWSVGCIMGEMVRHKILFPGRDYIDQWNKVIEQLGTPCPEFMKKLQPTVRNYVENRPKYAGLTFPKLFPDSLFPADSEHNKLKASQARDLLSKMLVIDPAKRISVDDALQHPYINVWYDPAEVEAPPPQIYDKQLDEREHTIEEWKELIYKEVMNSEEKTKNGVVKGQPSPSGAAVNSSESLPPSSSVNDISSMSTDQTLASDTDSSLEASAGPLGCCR
PDGFRA T674I, sequence (P16234 24-1089 T674I): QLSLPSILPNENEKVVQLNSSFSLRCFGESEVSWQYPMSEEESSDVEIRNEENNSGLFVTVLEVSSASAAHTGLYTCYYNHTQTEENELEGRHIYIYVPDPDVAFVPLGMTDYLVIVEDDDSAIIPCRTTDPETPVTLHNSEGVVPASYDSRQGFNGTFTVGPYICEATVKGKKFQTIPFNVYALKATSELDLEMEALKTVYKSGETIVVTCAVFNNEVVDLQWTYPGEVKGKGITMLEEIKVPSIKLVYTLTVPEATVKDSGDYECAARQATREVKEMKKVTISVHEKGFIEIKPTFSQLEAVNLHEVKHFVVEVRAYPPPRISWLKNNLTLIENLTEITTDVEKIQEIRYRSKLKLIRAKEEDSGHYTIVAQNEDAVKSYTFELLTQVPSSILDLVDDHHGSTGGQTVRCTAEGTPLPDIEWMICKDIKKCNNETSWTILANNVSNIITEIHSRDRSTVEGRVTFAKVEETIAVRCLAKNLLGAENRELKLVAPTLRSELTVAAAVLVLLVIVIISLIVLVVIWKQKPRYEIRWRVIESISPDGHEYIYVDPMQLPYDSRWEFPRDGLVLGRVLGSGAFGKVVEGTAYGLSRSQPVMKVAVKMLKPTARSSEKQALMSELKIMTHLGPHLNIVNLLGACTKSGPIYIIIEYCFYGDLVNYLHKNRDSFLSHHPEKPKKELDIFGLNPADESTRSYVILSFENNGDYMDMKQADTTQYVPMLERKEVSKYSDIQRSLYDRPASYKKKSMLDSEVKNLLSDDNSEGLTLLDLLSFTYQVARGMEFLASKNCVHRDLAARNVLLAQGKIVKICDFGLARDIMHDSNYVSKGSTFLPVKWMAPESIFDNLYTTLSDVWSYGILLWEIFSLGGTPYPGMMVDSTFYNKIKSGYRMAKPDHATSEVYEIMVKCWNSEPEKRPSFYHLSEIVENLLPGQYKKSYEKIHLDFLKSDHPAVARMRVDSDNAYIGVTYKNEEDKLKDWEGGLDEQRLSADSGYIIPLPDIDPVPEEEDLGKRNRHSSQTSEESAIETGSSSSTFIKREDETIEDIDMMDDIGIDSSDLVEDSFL
T7 sequence (Q13043 whole entry): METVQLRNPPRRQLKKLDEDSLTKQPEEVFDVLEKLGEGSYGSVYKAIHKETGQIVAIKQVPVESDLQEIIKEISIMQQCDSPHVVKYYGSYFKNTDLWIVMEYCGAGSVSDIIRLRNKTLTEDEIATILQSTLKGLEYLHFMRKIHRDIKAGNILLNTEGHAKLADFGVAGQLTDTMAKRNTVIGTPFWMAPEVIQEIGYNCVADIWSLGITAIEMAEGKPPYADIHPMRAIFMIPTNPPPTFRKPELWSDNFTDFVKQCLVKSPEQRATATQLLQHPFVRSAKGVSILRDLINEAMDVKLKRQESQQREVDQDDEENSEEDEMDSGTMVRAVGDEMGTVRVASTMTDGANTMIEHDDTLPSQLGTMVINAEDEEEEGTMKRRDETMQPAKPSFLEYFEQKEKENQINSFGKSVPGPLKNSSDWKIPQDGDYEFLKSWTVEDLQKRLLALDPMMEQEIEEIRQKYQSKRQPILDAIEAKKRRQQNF
T10 sequence (Q8IY84 whole entry): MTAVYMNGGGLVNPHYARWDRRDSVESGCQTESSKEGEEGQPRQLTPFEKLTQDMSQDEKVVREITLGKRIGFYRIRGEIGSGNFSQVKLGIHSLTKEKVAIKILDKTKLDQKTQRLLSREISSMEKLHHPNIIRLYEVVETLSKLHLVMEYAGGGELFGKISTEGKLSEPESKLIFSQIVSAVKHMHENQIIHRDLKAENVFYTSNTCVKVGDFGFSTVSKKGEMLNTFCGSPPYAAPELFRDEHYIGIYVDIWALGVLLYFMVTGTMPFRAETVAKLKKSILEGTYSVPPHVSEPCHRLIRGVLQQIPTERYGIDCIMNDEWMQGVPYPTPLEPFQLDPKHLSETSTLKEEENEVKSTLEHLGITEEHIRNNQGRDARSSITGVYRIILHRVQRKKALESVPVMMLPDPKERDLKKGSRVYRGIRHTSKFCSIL
T2 sequence (Q96PF2 whole entry): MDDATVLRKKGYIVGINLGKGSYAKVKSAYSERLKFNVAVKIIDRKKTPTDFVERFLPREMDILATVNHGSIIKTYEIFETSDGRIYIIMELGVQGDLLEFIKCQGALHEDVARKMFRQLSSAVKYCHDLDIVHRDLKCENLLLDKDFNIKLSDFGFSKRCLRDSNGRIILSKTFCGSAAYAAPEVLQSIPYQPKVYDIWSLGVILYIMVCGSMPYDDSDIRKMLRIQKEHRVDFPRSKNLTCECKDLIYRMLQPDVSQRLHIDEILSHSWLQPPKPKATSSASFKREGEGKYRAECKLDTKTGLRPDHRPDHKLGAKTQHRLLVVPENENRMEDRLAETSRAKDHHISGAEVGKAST
HIPK1 (Myak), sequence (Q86Z02 whole entry): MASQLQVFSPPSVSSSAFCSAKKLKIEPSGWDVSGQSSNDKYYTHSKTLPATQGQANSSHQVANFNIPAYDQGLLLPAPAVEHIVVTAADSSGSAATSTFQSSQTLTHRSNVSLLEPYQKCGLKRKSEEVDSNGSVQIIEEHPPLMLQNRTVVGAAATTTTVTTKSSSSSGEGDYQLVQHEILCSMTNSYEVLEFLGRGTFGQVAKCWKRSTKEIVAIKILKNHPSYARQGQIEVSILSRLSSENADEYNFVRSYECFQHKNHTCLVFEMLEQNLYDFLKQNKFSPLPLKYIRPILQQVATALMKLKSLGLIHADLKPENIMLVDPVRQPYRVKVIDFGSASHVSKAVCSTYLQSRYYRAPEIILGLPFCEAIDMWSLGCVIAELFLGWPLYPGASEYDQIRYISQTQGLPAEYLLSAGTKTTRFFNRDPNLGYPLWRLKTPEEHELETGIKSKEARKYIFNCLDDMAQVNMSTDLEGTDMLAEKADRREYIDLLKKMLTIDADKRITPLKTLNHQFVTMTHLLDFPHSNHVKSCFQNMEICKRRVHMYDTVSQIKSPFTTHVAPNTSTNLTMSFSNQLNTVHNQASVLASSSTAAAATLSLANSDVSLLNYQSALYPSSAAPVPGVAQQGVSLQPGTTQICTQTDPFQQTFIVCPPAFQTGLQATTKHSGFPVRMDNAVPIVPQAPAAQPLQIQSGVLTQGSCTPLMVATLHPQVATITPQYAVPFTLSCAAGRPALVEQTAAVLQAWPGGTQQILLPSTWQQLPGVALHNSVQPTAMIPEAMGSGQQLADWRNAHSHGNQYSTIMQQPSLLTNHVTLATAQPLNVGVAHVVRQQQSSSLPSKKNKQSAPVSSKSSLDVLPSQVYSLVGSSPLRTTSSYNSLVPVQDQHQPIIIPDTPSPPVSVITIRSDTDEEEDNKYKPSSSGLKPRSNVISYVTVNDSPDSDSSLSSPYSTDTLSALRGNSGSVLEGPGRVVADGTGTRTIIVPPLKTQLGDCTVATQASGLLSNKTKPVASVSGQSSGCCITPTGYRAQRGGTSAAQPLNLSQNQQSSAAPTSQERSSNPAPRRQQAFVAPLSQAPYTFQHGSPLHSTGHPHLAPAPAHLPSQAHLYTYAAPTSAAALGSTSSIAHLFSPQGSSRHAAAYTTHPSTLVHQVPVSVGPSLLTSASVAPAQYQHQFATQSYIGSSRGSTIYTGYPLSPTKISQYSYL

Work on `COc1ccc2[nH]c3c(=O)[nH]c4ccc(O)cc4c3c2c1` [Compound 55, 2-Hydroxy-10-methoxy-5,7-dihydro-6H-indolo[2,3-c]quinolin-6-one] yielded an inhibition at 1 µM (AURKB (Aurora B)) of 41%, an inhibition at 1 µM (STK22B (TSSK2)) of 5% and an inhibition at 1 µM (SGKL (SGK3)) of 9%. It also gave an inhibition at 1 µM (PRKCD (PKC delta)) of 7%, an inhibition at 1 µM (HIPK1 (Myak)) of 58% and an inhibition at 1 µM (PRKCA (PKC alpha)) of 14%. The inhibition at 1 µM (FGFR4) was 22%, the inhibition at 1 µM (SRC) was 37% and the inhibition at 1 µM (DYRK1B) was 96%. It also gave an inhibition at 1 µM (AMPK A2/B1/G1) of 58%, an inhibition at 1 µM (PTK2 (FAK)) of 25% and an inhibition at 1 µM (STK4 (MST1)) of 99%. It also gave an inhibition at 1 µM (CAMK1G (CAMKI gamma)) of 14%, an inhibition at 1 µM (MATK (HYL)) of 11% and an inhibition at 1 µM (AMPK (A1/B2/G3)) of 67%. For the same compound, the inhibition at 1 µM (CSNK1G2 (CK1 gamma 2)) was 33%, the inhibition at 1 µM (CDK17/cyclin Y) was 20% and the inhibition at 1 µM (NIM1K) was 9%. It also gave an inhibition at 1 µM (PDGFRB (PDGFR beta)) of 23%, an inhibition at 1 µM (ITK) of 49% and an inhibition at 1 µM (MAPK13 (p38 delta)) of 20%. For the same compound, the inhibition at 1 µM (PRKCE (PKC epsilon)) was 10%, the inhibition at 1 µM (AURKC (Aurora C)) was 17% and the inhibition at 1 µM (IGF1R) was 13%. It also gave an inhibition at 1 µM (DCAMKL1 (DCLK1)) of 2%, an inhibition at 1 µM (PAK4) of 15% and an inhibition at 1 µM (STK25 (YSK1)) of 19%. The inhibition at 1 µM (MAPK10 (JNK3)) was 15%, the inhibition at 1 µM (PDGFRA T674I) was 6% and the inhibition at 1 µM (MARK4) was 31%. For the same compound, the inhibition at 1 µM (EPHA4) was 7%, the inhibition at 1 µM (ACVR1B (ALK4)) was -13% and the inhibition at 1 µM (PIM2) was 18%. For the same compound, the inhibition at 1 µM (PASK) was 49%, the inhibition at 1 µM (FES (FPS)) was 25% and the inhibition at 1 µM (AMPK A1/B1/G1) was 47%. The inhibition at 1 µM (EPHA1) was 33%, the inhibition at 1 µM (CDKL5) was 5% and the inhibition at 1 µM (EPHB2) was 21%.
